Laboratory results published in EPA's ToxValDB 9.5.

How the values were obtained:
Mus musculus [1] = conditions: oral
Cricetulus sp. = conditions: for NOAEL: oral, gavage, Hamster
Rattus norvegicus [2] = conditions: for LC50 / LD50: acute
Rattus norvegicus [3] = conditions: oral
Canidae [4] = conditions: oral, diet, M/F, Dog Other
Rattus norvegicus [5] = conditions: Hershberger, duration: 10 days, oral, gavage, Sprague-Dawley
Canidae [6] = conditions: oral, diet, Dog Other
Rattus norvegicus [7] = conditions: reproduction developmental, oral, M/F
Oryctolagus sp. [8] = conditions: reproduction developmental; duration: 12 days; oral; gavage; M/F; New Zealand; gastrointestinal
Rattus norvegicus [9] = conditions: oral; remark: listed apart in the source
Mus musculus [10] = system: Mus musculus
Oryctolagus sp. [11] = conditions: acute; dermal; New Zealand
Rattus norvegicus [12] = assay: LD100; higher = less toxic; conditions: acute; oral
Neovison sp. = conditions: repeat dose other; oral; Mink
Rattus norvegicus [13] = conditions: repeat dose other; oral
Homo sapiens [14] = conditions: clinical; duration: 5 minutes; inhalation; M; respiratory
Mus musculus [15] = conditions: chronic; oral; M/F; lung and kidney histopathology
Homo sapiens [16] = conditions: clinical, oral, diet
Mus musculus [17] = conditions: repeat dose other; oral
Sus scrofa = conditions: oral, Not specified; for LOEL: duration: 14 weeks, M/F, Changes in serum testosterone and estradiol and testes weight
[18] = short-term, duration: 28 days, gavage, M, Sprague-Dawley, Clinical Observation: Salivationlocomotor activity decrease, Soft stool/diarrhea + Urinalysis: Brownish urine Occult blood + Hematology: PT …
[19] = chronic, duration: 2 years, renal tubular epithelial vacuolation
[20] = increased incidence of renal tubular dilation in f3b offspring
[21] = reproduction developmental, duration: 10 days, oral, gavage, F, CD1
[22] = forelimb hair loss + Parturition mortality
[23] = chronic, duration: 14 weeks, inhalation, F, B6C3F1
[24] = chronic, duration: 14 weeks, inhalation, M, B6C3F1
[25] = chronic, duration: 14 weeks, inhalation, F, Fischer 344
[26] = chronic, duration: 14 weeks, inhalation, M, Fischer 344

## O=CC(Cl)(Cl)Cl [Chloral]
Mus musculus [1]; subchronic, duration: 90 days, drinking water, Liver: Effects
  LOAEL: 15.7 mg/kg-day

## COCCl [Chloromethyl methyl ether]
Cricetulus sp.; acute, inhalation, Golden Syrian
  LC50: 214 mg/m3
Rattus norvegicus [2]; inhalation, Sprague-Dawley
  LC50: 181 mg/m3
Rattus norvegicus [2]; oral
  LD50: 817 mg/kg
Rattus norvegicus [2]; developmental, duration: 15 days, inhalation, Sprague-Dawley
  NOAEL: 132 mg/m3
Rattus norvegicus [2]; reproduction developmental, duration: 10 days, inhalation, F, Sprague-Dawley
  NOAEL: 0.006 mg/L
Rattus norvegicus [3]; subchronic, duration: 42 days, gavage, M, CD(SD), Body Weight Changes: decrease + Food Consumption: decrease + Urinalysis: Osm decrease + Hematology: RET increase, WBC increase, LYMPH …
  NOEL: < 15 mg/kg-day

## N#Cc1c(Cl)c(Cl)c(Cl)c(C#N)c1Cl [Chlorothalonil]
Rattus norvegicus [3]; [18]
  NOAEL: < 100 mg/kg-day
  NOEL: < 100 mg/kg-day
Canidae [4]; [19]
  LEL: 3 mg/kg-day
  NOEL: 1.5 mg/kg-day
Rattus norvegicus [5]; inactive + Negative + Negative + neither + see note
  NOEL: 175 mg/kg-day
Canidae [6]; chronic, duration: 2 years, Kidney: Effects
  NOEL: 1.5 mg/kg-day

## O=C(O)CNCP(=O)(O)O [Glyphosate]
Rattus norvegicus [3]; subchronic, diet, F, Fischer 344, Clinical Observation: Diarrhea + Body Weight Changes: decrease(>25000 ) + Hematology: Hct increase, RBC increase, Hgb increase + Blood …
  NOEL: 213 mg/kg-day
Rattus norvegicus [3]; subchronic, diet, M/F, Fischer 344, Clinical Observation: Diarrhea + Body Weight Changes: decrease(>25000 ) + Hematology: Hct increase, RBC increase, Hgb increase + Blood …
  NOEL: < 300 mg/kg-day
Rattus norvegicus [7]; [20]
  LEL: 30 mg/kg-day
  NOEL: 10 mg/kg-day
Oryctolagus sp. [8]
  NOAEL: 100 mg/kg-day
Rattus norvegicus [9]; chronic, duration: 24 months, diet, F, albino Sprague Dawley, gastrointestinal
  NOAEL: 113 mg/kg-day
Rattus norvegicus [9]; chronic, duration: 24 months, diet, M/F, albino Sprague Dawley, gastrointestinal
  NOAEL: 113 mg/kg-day
Rattus norvegicus [5]; inactive + Negative + Negative + neither + decrease in AST and liver at 1000 / decrease in bw 10% at 1000 / testosterone dose-dependent …
  NOEL: 300 mg/kg-day

## ClC1=C(Cl)[C@]2(Cl)[C@@H]3[C@@H](Cl)[C@H]4O[C@H]4[C@@H]3C1(Cl)C2(Cl)Cl [Heptachlor epoxide B]
Canidae [4]; chronic, duration: 60 weeks, increased liver-to-body weight ratio in both males and females
  LEL: 0.0125 mg/kg-day
Canidae [6]; chronic, duration: 60 weeks, Liver: Increased relative weight
  LOAEL: 0.0125 mg/kg-day

## Oc1c(Cl)cc(Cl)c(Cl)c1Cc1c(O)c(Cl)cc(Cl)c1Cl [Hexachlorophene]
Canidae [4]; subchronic, duration: 13 weeks, swollen salivary gland, status spongiosis in brain and optic nerve
  LEL: 0.75 mg/kg-day
Canidae [6]; subchronic, duration: 13 weeks, Nervous system: Effects
  LOAEL: 0.75 mg/kg-day

## CC(O)C(=O)O (stereo not given) [Lactic acid]
Mus musculus [10]; reproduction developmental, duration: 10 days, oral, gavage, CD1, generation: F1
  NOAEL: ≥ 570 mg/kg-day
Mus musculus [10]; [21]
  NOAEL: ≥ 570 mg/kg-day
Oryctolagus sp. [11]
  LD50: > 2000 mg/kg
Rattus norvegicus [2]; Inhalation, Fischer 344
  LC50: > 7.94 µg/mL
Rattus norvegicus [2]; subchronic, duration: 13 weeks, dermal, F, Sprague-Dawley
  LOAEL: 886 mg/kg-day
Rattus norvegicus [12]
  LD100: 11200 mg/kg

## [CH3][Hg][Cl] [Methylmercuric(II) chloride]
Neovison sp.
  LOAEL: 0.025 mg/kg-day
  NOAEL: 0.015 mg/kg-day
Rattus norvegicus [13]
  LOAEL: 0.16 mg/kg-day
  NOAEL: 0.032 mg/kg-day

## [P] [Phosphorus]
Rattus norvegicus [7]; [22]
  LOAEL: 0.075 mg/kg-day
  NOAEL: 0.015 mg/kg-day
Homo sapiens [14]
  LOAEL: 187 mg/m3
Rattus norvegicus [9]; reproduction developmental, duration: 204 days, gavage, M/F, Sprague-Dawley, reproductive
  NOAEL: 0.015 mg/kg-day

## O=C1OC(=O)c2ccccc21 [Phthalic anhydride]
Mus musculus [15]
  LOAEL: 1560 mg/kg-day
Mus musculus [1]; chronic, duration: 104 weeks, diet, Kidney: Histopathology + Lung: Histopathology
  LOAEL: 1560 mg/kg-day

## CCN(CC)c1nc(C)cc(OP(=S)(OC)OC)n1 [Pirimiphos-methyl]
Homo sapiens [16]; duration: 28 days, M, Borderline ChE depression
  NOEL: 0.25 mg/kg-day
Homo sapiens [16]; duration: 56 days, M/F, Transient plasma ChE depression
  NOEL: 0.25 mg/kg-day

## ClC(Cl)=C(Cl)Cl [Tetrachloroethylene]
Mus musculus [17]
  LOAEL: 7 mg/kg-day
  NOAEL: 1.4 mg/kg-day
Mus musculus [1]; subchronic, duration: 6 weeks, Liver: Hepatotoxicity
  NOAEL: 14 mg/kg-day

## CC(=O)O[C@H]1CC[C@H]2[C@@H]3CCC4=CC(=O)CCC4=C3C=C[C@]12C [Trenbolone acetate]
Sus scrofa; chronic, diet
  LOEL: 0.002 mg/kg-day
Sus scrofa; feed
  LOEL: 2 µg/kg-day

## CC1=C[C@H]2O[C@@H]3[C@H](O)C[C@](C)([C@@]2(CO)[C@H](O)C1=O)[C@@]31CO1 [Vomitoxin]
Sus scrofa; repeat dose other, diet, Emesis
  NOEL: 0.25 mg/kg-day

## CC1=CCC2CC1C2(C)C (stereo not drawn) [alpha-Pinene]
Cricetulus sp.; developmental, duration: 10 days
  NOAEL: 600 mg/kg-day
Cricetulus sp.; reproduction developmental, duration: 10 days, F
  NOAEL: 600 mg/kg-day
Cricetulus sp.; reproduction developmental
  NOAEL: 600 mg/kg-day
Mus musculus [10]; [23]
  LOAEL: 557 mg/m3
  NOAEL: 279 mg/m3
Mus musculus [10]; [24]
  LOAEL: 557 mg/m3
  NOAEL: 279 mg/m3
Mus musculus [10]; [21]
  NOAEL: 560 mg/kg-day
Oryctolagus sp. [11]
  LD50: > 5000 mg/kg
Rattus norvegicus [2]; oral, Wistar
  LD50: 3700 mg/kg
Rattus norvegicus [2]; [25]
  LOAEL: 340 mg/kg-day
  NOAEL: 170 mg/kg-day
Rattus norvegicus [2]; [26]
  LOAEL: 42 mg/kg-day
  NOAEL: 21 mg/kg-day
Rattus norvegicus [2]; developmental, duration: 10 days, oral, gavage, Wistar
  NOAEL: 260 mg/kg-day
Rattus norvegicus [2]; reproduction developmental, duration: 10 days, oral, gavage, F, Wistar
  NOAEL: 260 mg/kg-day
